In patent EP1457483A1, “Cationic lipids with serine backbone” (Ruhr-Universität Bochum, priority 2003, dated 2004):

System: COS-7 cells
Assay: Automated lipofection screening: GFP-luciferase reporter gene transfer (luciferase activity per protein content)
Format: cell-based, African green monkey
Conditions: pEGFPLuc plasmid, point is thousands separator; for Maximum transfection efficiency, MW (mean value), Helper lipid: DOPE: cationic/helper lipid 1:0.5 with DOPE; for Maximum transfection efficiency, MW (mean value), Helper lipid: DOPE / Maximum transfection efficiency, MW (mean value), Helper lipid: CHOL: at the LDR giving the maximum; for Maximum transfection efficiency, MW (mean value), Helper lipid: CHOL: cationic/helper lipid 1:0.5 with cholesterol; for Maximum transfection efficiency, MW (mean value), Helper lipid: without: no helper lipid, at the LDR (1:1-15:1) giving the maximum
Protocol: Screening the combinatorial lipid library for lipofection properties: Goal of this first step was to compare transfection efficiency of these structurally related cationic lipids with systematically modified hydrocarbon chain compositions for the development of suitable lipofection reagents and protocols and to study the relationship between structure and transfection efficiency of this new class of cationic lipids for gene transfer. All lipids (MS-1 to MS-50, table 1) were tested using a standard protocol: From each lipid, twenty four different lipoplexes were formed containing either no helper lipid or the helper lipids DOPE and CHOL at molar amounts (1:0.5), respectively, using eight different lipid:DNA-charge ratios (LDR) from 1:1 - 15:1, resulting in a lipofection profile for each lipid. The COS-7 cell-line was used for this lipofection study since COS-7 is easy to transfect and differences between the lipids are easy to identify.
Cell culture: SV40 transformed African green monkey kidney cell line COS-7 (ATCC CRL-1651) was routinely passaged in DMEM (GIBCO BRL, Karlsruhe, Germany), respectively, supplemented with 1% L-glutamin solution (100x), 1% Penicillin/Streptomycin solution (100x) (GIBCO BRL, Karlsruhe, Germany), and 10% FCS (BioWhittaker, Verviers, Belgium) at 37°C with 5% CO2 in humidified atmosphere. For the screening cells were maintained in 96-well culture plates (Greiner, Frickenhausen, Germany) in 100 µl DMEM, 10 % FCS, 1 % Penicillin-streptomycin in a humidified atmosphere at 37 °C/5 % CO2. 24 h prior to transfection, the cells were seeded into the microtiter plate at 10,000 cells per well to reach a confluency of 50 % at the time of transfection. Dendritic cells: Dendritic cells (DC) were derived from highly purified circulating CD14(+) monocytes: In a first step, peripheral blood mononuclear leukocytes (PBL) from healthy control persons were isolated by Ficoll-Paque (Pharmacia Biotech AB, Uppsala, Sweden) density centrifugation. The following immunomagnetic purification of the monocytes from PBL was performed using CD14 Microbeads and MiniMACS high gradient magnetic separation columns (Miltenyi Biotech, Bergisch Gladbach, Germany) according to manufacturer's instructions. Isolated monocytes (5 x 10^5/well) were cultured in RPMI supplemented with 10 % FCS, or serum-free Macrophage-SFM medium (GIBCO BRL, Karlsruhe, Germany) supplemented with human recombinant GM-CSF (0.05µg/ml) and IL-4 (0.025µg/ml) (PromoCell, Heidelberg, Germany) in 6-well plates. Aliquots of the cells were reanalyzed by FACS with anti-CD14 mAbs (Pharmingen, San Diego, CA). After 5-6 days non-adherent cells were collected and purity of DCs was determined by FACS analysis using a FACSort flow cytometer (Becton Dickinson, Mountain View, CA) and the CellQuest software for data processing as recently described (Jantscheff, P. et al., J. Immunol. Methods 163(1):91-7 (1993)).

Row | Compound | Maximum transfection efficiency, MW (mean value), Helper lipid: DOPE [RLU] | Maximum transfection efficiency, MW (mean value), Helper lipid: CHOL [RLU] | Maximum transfection efficiency, MW (mean value), Helper lipid: without [RLU]
1 | CCCCCCCC/C=C\CCCCCCCCN(CCCCCCCC/C=C\CCCCCCCC)[C@@H](CO)C(=O)NCCCCCCN [compound 25] | 44.451 | 12.225 | 23.710
2 | CCCCCCCCCCCC[N+](C)(CCCCCCCCCCCC)[C@@H](CO)C(=O)NCCN [compound 26] | 846 | 16.919 | 3.196
3 | CCCCCCCCCCCCCC[N+](C)(CCCCCCCCCCCCCC)[C@@H](CO)C(=O)NCCN [compound 27] | 196.400 | 311.891 | 21.934
4 | CCCCCCCCCCCCCCCC[N+](C)(CCCCCCCCCCCCCCCC)[C@@H](CO)C(=O)NCCN [compound 28] | 190.444 | 461.747 | 171.272
5 | CCCCCCCCCCCCCCCCCC[N+](C)(CCCCCCCCCCCCCCCCCC)[C@@H](CO)C(=O)NCCN [compound 29] | 24.095 | 137.404 | 43.875
6 | CCCCCCCC/C=C\CCCCCCCC[N+](C)(CCCCCCCC/C=C\CCCCCCCC)[C@@H](CO)C(=O)NCCN [compound 30] | 57.187 | 251.177 | 99.415
7 | CCCCCCCCCCCCCC[N+](C)(CCCCCCCCCCCCCC)[C@@H](CO)C(=O)NCCCN [compound 32] | 225.268 | 447.443 | 2.075
8 | CCCCCCCCCCCCCCCC[N+](C)(CCCCCCCCCCCCCCCC)[C@@H](CO)C(=O)NCCCN [compound 33] | 201.586 | 372.446 | 49.603
9 | CCCCCCCCCCCCCCCCCC[N+](C)(CCCCCCCCCCCCCCCCCC)[C@@H](CO)C(=O)NCCCN [compound 34] | 5.085 | 42.068 | 21.056
10 | CCCCCCCC/C=C\CCCCCCCC[N+](C)(CCCCCCCC/C=C\CCCCCCCC)[C@@H](CO)C(=O)NCCCN [compound 35] | 43.284 | 56.949 | 34.736
11 | CCCCCCCCCCCC[N+](C)(CCCCCCCCCCCC)[C@@H](CO)C(=O)NCCCCN [compound 36] | 26.495 | 3.829 | 2.064
12 | CCCCCCCCCCCCCC[N+](C)(CCCCCCCCCCCCCC)[C@@H](CO)C(=O)NCCCCN [compound 37] | 63.765 | 148.560 | 1.972
13 | CCCCCCCCCCCCCCCC[N+](C)(CCCCCCCCCCCCCCCC)[C@@H](CO)C(=O)NCCCCN [compound 38] | 71.641 | 156.698 | 30.747
14 | CCCCCCCC/C=C\CCCCCCCC[N+](C)(CCCCCCCC/C=C\CCCCCCCC)[C@@H](CO)C(=O)NCCCCN [compound 40] | 48.692 | 119.285 | 12.263
15 | CCCCCCCCCCCC[N+](C)(CCCCCCCCCCCC)[C@@H](CO)C(=O)NCCCCCN [compound 41] | 1.535 | 923 | 946
16 | CCCCCCCCCCCCCC[N+](C)(CCCCCCCCCCCCCC)[C@@H](CO)C(=O)NCCCCCN [compound 42] | 72.349 | 181.719 | 832
17 | CCCCCCCCCCCCCCCC[N+](C)(CCCCCCCCCCCCCCCC)[C@@H](CO)C(=O)NCCCCCN [compound 43] | 169.621 | 222.652 | 6.944
18 | CCCCCCCCCCCCCCCCCC[N+](C)(CCCCCCCCCCCCCCCCCC)[C@@H](CO)C(=O)NCCCCCN [compound 44] | 1.712 | 28.104 | 3.542
19 | CCCCCCCC/C=C\CCCCCCCC[N+](C)(CCCCCCCC/C=C\CCCCCCCC)[C@@H](CO)C(=O)NCCCCCN [compound 45] | 69.821 | 64.111 | 14.092
20 | CCCCCCCCCCCC[N+](C)(CCCCCCCCCCCC)[C@@H](CO)C(=O)NCCCCCCN [compound 46] | 560 | 766 | 956
21 | CCCCCCCCCCCCCC[N+](C)(CCCCCCCCCCCCCC)[C@@H](CO)C(=O)NCCCCCCN [compound 47] | 50.115 | 56.974 | 533
22 | CCCCCCCCCCCCCCCC[N+](C)(CCCCCCCCCCCCCCCC)[C@@H](CO)C(=O)NCCCCCCN [compound 48] | 73.318 | 96.148 | 62.022
23 | CCCCCCCCCCCCCCCCCC[N+](C)(CCCCCCCCCCCCCCCCCC)[C@@H](CO)C(=O)NCCCCCCN [compound 49] | 7.563 | 10.245 | 2.177
24 | CCCCCCCC/C=C\CCCCCCCC[N+](C)(CCCCCCCC/C=C\CCCCCCCC)[C@@H](CO)C(=O)NCCCCCCN [compound 50] | 39.590 | 70.812 | 17.315
